How the values were obtained:
[1] = system: NMDA receptor; conditions: Carter et al 1988; cited from earlier work
[2] = system: sigma receptor; conditions: cited from earlier work
[3] = biological target: sigma receptor (Cavia porcellus, UniProt Q60492); assay: biochemical
Chain of sigma receptor (Cavia porcellus, UniProt Q60492) (Q60492 whole entry): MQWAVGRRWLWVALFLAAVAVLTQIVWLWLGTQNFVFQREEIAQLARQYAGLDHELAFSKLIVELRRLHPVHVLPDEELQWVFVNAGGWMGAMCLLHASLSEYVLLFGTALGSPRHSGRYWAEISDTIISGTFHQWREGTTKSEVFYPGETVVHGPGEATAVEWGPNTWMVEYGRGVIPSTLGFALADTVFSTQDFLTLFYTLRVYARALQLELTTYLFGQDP

In the case of “1-(4-chlorophenyl)-2-[1-(4-fluorophenyl)piperidinyl]ethanol”, the NMDA receptor antagonism [1] is listed as “non-competitive NMDA receptor antagonists”.

In the case of CN(CCc1ccc(Cl)c(Cl)c1)[C@@H]1CCCC[C@@H]1N1CCCC1 (single isomer, unassigned) [cis-N-[3,4-dichlorophenylethyl]-N-methyl-2-(1-pyrrolidinyl)cyclohexylamine], the “sigma ligand potency and selectivity” value [2] is given as “extremely potent and selective ligands for the sigma receptor”.

Work on CN(CCc1ccc(Cl)c(Cl)c1)CC1CCCCN1C (stereo not drawn) [Compound 2, 2-[N-[2-(3,4-Dichlorophenyl)ethyl]-N-(methyl)aminomethyl]-1-(methyl)piperidine] yielded a Ki [3] of 3.69 ± 0.85 nM.

With CCN1CCCC1CNCCc1ccc(Cl)c(Cl)c1 (stereo not drawn) [Compound 3, 2-[N-(3,4-dichlorophenylethyl)aminomethyl]-1-(ethyl)pyrrolidine] the Ki [3] was 16 ± 3.62 nM.

Work on CCN1CCCC1CN(C)CCc1ccc(Cl)c(Cl)c1 (stereo not drawn) [Compound 4, 2-[N-(3,4-Dichlorophenylethyl)-N-(methyl)aminomethyl]-1-(ethyl)pyrrolidine] yielded a Ki [3] of 1.48 ± 0.37 nM.

For CC(C(O)c1ccc(O)cc1)N1CCC(Cc2ccccc2)CC1 (stereo not drawn) [ifenprodil], the NMDA receptor antagonism [1] is given as “non-competitive NMDA receptor antagonists”.
